Measured values published in patent publication US20240131028A1, “CHEMOVACCINATION AGAINST PLASMODIUM INFECTION WITH SELECTIVE PLASMEPSIN X INHIBITORS” (Merck Sharp & Dohme LLC, priority 2021, published 2024).
Read-outs that look alike come from different tables or passages of the source.

Tested on: ring stage parasites (Pf)
Assay: Parasite lactate dehydrogenase (LDH) growth assay (Parasite Assay, PfLDH Assay)
Type: cell-based, P. falciparum
Conditions: Table 3, 72 hours growth, LDH readout, read-out: EC50

Row | Structure (SMILES) | EC50 (Plasmodium falciparum, 72 h) [nM] | EC50 [nM]
1 | CC1(C)CC(=O)N(C[C@H]2C[C@@H]2C(=O)N[C@H]2CC(C)(C)Oc3cc(Cl)ccc32)C(=N)N1 [Example 90] | 225 | 
2 | CC1(C)CC(=O)N([C@@H](c2cccnc2)[C@H]2C[C@@H]2C(=O)N[C@H]2CC(C)(C)Oc3cc(Cl)ccc32)C(=N)N1 [Example 91A] | 0.8 | 
3 | CC1(C)CC(=O)N([C@H](c2cccnc2)[C@H]2C[C@@H]2C(=O)N[C@H]2CC(C)(C)Oc3cc(Cl)ccc32)C(=N)N1 [Example 91B] | 2.7 | 
4 | CCC1(CC)CC(NC(=O)[C@H]2C[C@@H]2[C@@H](CCOC)N2C(=N)NC(C)(C)CC2=O)c2ccccc2O1 (stereo partly drawn) [Example 92A] | 7.6 | 
5 | CCC1(CC)CC(NC(=O)[C@H]2C[C@@H]2[C@@H](CCOC)N2C(=N)NC(C)(C)CC2=O)c2ccccc2O1 (stereo partly drawn) [Example 92B] |  | 7.2
6 | CC1(C)CC(=O)N([C@H](c2cccnc2)[C@H]2C[C@@H]2C(=O)NC2CC(C)(C)Oc3c(F)cccc32)C(=N)N1 (stereo partly drawn) [Example 93A] | 3.3 | 
7 | CC1(C)CC(=O)N([C@H](c2cccnc2)[C@H]2C[C@@H]2C(=O)NC2CC(C)(C)Oc3c(F)cccc32)C(=N)N1 (stereo partly drawn) [Example 93B] |  | 2.4
8 | CC1(C)CC(=O)N([C@H](c2cccnc2)[C@H]2C[C@@H]2C(=O)NC2CC(C)(C)Oc3c(Cl)cc(Cl)cc32)C(=N)N1 (stereo partly drawn) [Example 94A] | 0.9 | 
9 | CC1(C)CC(=O)N(C[C@H]2C[C@@H]2C(=O)N[C@H]2CC(C)(C)Oc3ccc(Cl)cc32)C(=N)N1 [Example 95] | 110 | 
10 | COc1cccc2c1C(NC(=O)[C@H]1C[C@@H]1[C@@H](c1cccnc1)N1C(=N)NC(C)(C)CC1=O)CC(C)(C)O2 (stereo partly drawn) [Example 96A] | 2.7 | 
11 | COc1cccc2c1C(NC(=O)[C@H]1C[C@@H]1[C@@H](c1cccnc1)N1C(=N)NC(C)(C)CC1=O)CC(C)(C)O2 (stereo partly drawn) [Example 96B] |  | 3.3
12 | CC1(C)CC(=O)N(C[C@H]2C[C@@H]2C(=O)NC2CC(C)(C)Oc3c(Cl)cc(Cl)cc32)C(=N)N1 (stereo partly drawn) [Example 97A] | 180 | 
13 | CC1(C)CC(=O)N(C[C@H]2C[C@@H]2C(=O)NC2CC(C)(C)Oc3c(Cl)cc(Cl)cc32)C(=N)N1 (stereo partly drawn) [Example 97B] |  | 220
14 | CC1(C)CC(=O)N(C[C@H]2C[C@@H]2C(=O)NC2CC(C)(C)Oc3c(C(F)(F)F)ccc(F)c32)C(=N)N1 (stereo partly drawn) [Example 99] | 130 | 
15 | CC1(C)CC(=O)N(C[C@H]2C[C@@H]2C(=O)N[C@H]2CC(C)(C)Oc3ccc(C(F)(F)F)cc32)C(=N)N1 [Example 100] | 170 | 
16 | COCC[C@H]([C@H]1C[C@@H]1C(=O)N[C@H]1CC(C)(C)Oc2ccc(Cl)cc21)N1C(=N)NC(C)(C)CC1=O [Example 101] | 2.9 | 
17 | CC[C@@]1(C)CC(=O)N([C@H](c2cncc(F)c2)[C@H]2C[C@@H]2C(=O)N[C@@H]2c3ccccc3OCC2(C)C)C(=N)N1 [Example 102A] | 0.8 | 
18 | CC[C@@]1(C)CC(=O)N(C(c2cncc(F)c2)[C@H]2C[C@@H]2C(=O)N[C@@H]2c3ccccc3OCC2(C)C)C(=N)N1 (stereo partly drawn) [Example 102B] | 2.5 | 
19 | COCC[C@H]([C@H]1C[C@@H]1C(=O)NC1CC(C)(C)Oc2c(Cl)cc(Cl)cc21)N1C(=N)NC(C)(C)CC1=O (stereo partly drawn) [Example 106A] | 7.4 | 

Row | Structure (SMILES) | EC50 (Plasmodium falciparum, 72 h) [nM] | EC50 [nM]
20 | COCC[C@H]([C@H]1C[C@@H]1C(=O)NC1CC(C)(C)Oc2c(Cl)cc(Cl)cc21)N1C(=N)NC(C)(C)CC1=O (stereo partly drawn) [Example 106B] |  | 10
21 | COCC[C@H]([C@H]1C[C@@H]1C(=O)N[C@H]1CC(C)(C)Oc2cccc(OC(F)(F)F)c21)N1C(=N)NC(C)(C)CC1=O [Example 107A] | 2.1 | 
22 | COCC[C@H]([C@H]1C[C@@H]1C(=O)N[C@@H]1CC(C)(C)Oc2cccc(OC(F)(F)F)c21)N1C(=N)NC(C)(C)CC1=O [Example 107B] | 11 | 
23 | COCC[C@H]([C@H]1C[C@@H]1C(=O)N[C@@H]1CC(C)(C)Oc2ccc(C(F)(F)F)cc21)N1C(=N)NC(C)(C)CC1=O [Example 110A] | 21 | 
24 | COCC[C@H]([C@H]1C[C@@H]1C(=O)N[C@H]1CC(C)(C)Oc2ccc(C(F)(F)F)cc21)N1C(=N)NC(C)(C)CC1=O [Example 110B] | 7.2 | 
25 | COCC[C@H]([C@H]1C[C@@H]1C(=O)NC1CC(C)(C)Oc2c(F)cccc21)N1C(=N)NC(C)(C)CC1=O (stereo partly drawn) [Example 111A] | 24 | 
26 | COCC[C@H]([C@H]1C[C@@H]1C(=O)NC1CC(C)(C)Oc2c(F)cccc21)N1C(=N)NC(C)(C)CC1=O (stereo partly drawn) [Example 111B] |  | 15
27 | COCC[C@H]([C@H]1C[C@@H]1C(=O)NC1CC(C)(C)Oc2c(Cl)cccc21)N1C(=N)NC(C)(C)CC1=O (stereo partly drawn) [Example 112A] | 18 | 
28 | COCC[C@H]([C@H]1C[C@@H]1C(=O)NC1CC(C)(C)Oc2c(Cl)cccc21)N1C(=N)NC(C)(C)CC1=O (stereo partly drawn) [Example 112B] |  | 9.4
29 | COCC[C@H]([C@H]1C[C@@H]1C(=O)N[C@@H]1CC(C)(C)Oc2c(F)cc(F)cc21)N1C(=N)NC(C)(C)CC1=O [Example 113A] | 19 | 
30 | COCC[C@H]([C@H]1C[C@@H]1C(=O)N[C@H]1CC(C)(C)Oc2c(F)cc(F)cc21)N1C(=N)NC(C)(C)CC1=O [Example 113B] | 7.5 | 
31 | COCC[C@H]([C@H]1C[C@@H]1C(=O)N[C@@H]1CC(C)(C)Oc2c(C(F)(F)F)ccc(F)c21)N1C(=N)NC(C)(C)CC1=O [Example 114A] | 89 | 
32 | COCC[C@H]([C@H]1C[C@@H]1C(=O)N[C@H]1CC(C)(C)Oc2c(C(F)(F)F)ccc(F)c21)N1C(=N)NC(C)(C)CC1=O [Example 114B] | 5.1 | 
33 | CC1(C)CC(=O)N([C@H](c2cccnc2)[C@H]2C[C@@H]2C(=O)N[C@@H]2CC(C)(C)Oc3c(C(F)(F)F)ccc(F)c32)C(=N)N1 [Example 115A] | 6.6 | 
34 | CC1(C)CC(=O)N([C@H](c2cccnc2)[C@H]2C[C@@H]2C(=O)N[C@H]2CC(C)(C)Oc3c(C(F)(F)F)ccc(F)c32)C(=N)N1 [Example 115B] | 1 | 
35 | COCC[C@H]([C@H]1C[C@@H]1C(=O)N[C@H]1CC(C)(C)Oc2cccc(Cl)c21)N1C(=N)NC(C)(C)CC1=O [Example 116A] | 0.8 | 
36 | COCC[C@H]([C@H]1C[C@@H]1C(=O)N[C@@H]1CC(C)(C)Oc2cccc(Cl)c21)N1C(=N)NC(C)(C)CC1=O [Example 116B] | 18 | 
37 | CC1(C)CC(=O)N(C[C@H]2C[C@@H]2C(=O)N[C@H]2CC(C)(C)Oc3cccc(OC(F)(F)F)c32)C(=N)N1 [Example 118] | 63 | 
38 | CC1(C)CC(=O)N(C[C@H]2C[C@@H]2C(=O)N[C@H]2CC(C)(C)Oc3cccc(Cl)c32)C(=N)N1 [Example 119] | 26 | 

Row | Structure (SMILES) | EC50 (Plasmodium falciparum, 72 h) [nM] | EC50 [nM]
39 | CC1(C)CC(=O)N([C@H](c2cccnc2)[C@H]2C[C@@H]2C(=O)N[C@H]2CC(C)(C)Oc3ccc(Cl)cc32)C(=N)N1 [Example 120] | 1 | 
40 | CC1(C)CC(=O)N([C@H](c2cccnc2)[C@H]2C[C@@H]2C(=O)NC2CC(C)(C)Oc3c(Cl)cccc32)C(=N)N1 (stereo partly drawn) [Example 121A] | 2.5 | 
41 | CC1(C)CC(=O)N([C@H](c2cccnc2)[C@H]2C[C@@H]2C(=O)NC2CC(C)(C)Oc3c(Cl)cccc32)C(=N)N1 (stereo partly drawn) [Example 121B] |  | 2
42 | CC1(C)CC(=O)N([C@H](c2cccnc2)[C@H]2C[C@@H]2C(=O)NC2CC(C)(C)Oc3c(F)cc(F)cc32)C(=N)N1 (stereo partly drawn) [Example 122A] | 2.3 | 
43 | CC1(C)CC(=O)N([C@H](c2cccnc2)[C@H]2C[C@@H]2C(=O)NC2CC(C)(C)Oc3c(F)cc(F)cc32)C(=N)N1 (stereo partly drawn) [Example 122B] |  | 2.2
44 | CC[C@]1(C)CC(=O)N([C@H](CCOC)[C@H]2C[C@@H]2C(=O)N[C@H]2CC(C)(C)Oc3ccc(C)cc32)C(=N)N1 [Example 123] | 2 | 
45 | CC[C@]1(C)CC(=O)N([C@H](CCOC)[C@H]2C[C@@H]2C(=O)N[C@H]2CC(C)(C)Oc3ccc(Cl)cc32)C(=N)N1 [Example 124] | 0.8 | 
46 | CC1(C)CC(=O)N(C[C@H]2C[C@@H]2C(=O)NC2CC(C)(C)Oc3ccc(OC(F)(F)F)cc32)C(=N)N1 (stereo partly drawn) [Example 125A] | 231 | 
47 | CC1(C)CC(=O)N(C[C@H]2C[C@@H]2C(=O)NC2CC(C)(C)Oc3ccc(OC(F)(F)F)cc32)C(=N)N1 (stereo partly drawn) [Example 125B] |  | 160
48 | COCC[C@H]([C@H]1C[C@@H]1C(=O)NC1CC(C)(C)Oc2ccc(OC(F)(F)F)cc21)N1C(=N)NC(C)(C)CC1=O (stereo partly drawn) [Example 126A] | 4.7 | 
49 | COCC[C@H]([C@H]1C[C@@H]1C(=O)NC1CC(C)(C)Oc2ccc(OC(F)(F)F)cc21)N1C(=N)NC(C)(C)CC1=O (stereo partly drawn) [Example 126B] |  | 8.4
50 | Cc1ccc2c(c1)[C@@H](NC(=O)[C@H]1C[C@@H]1CN1C(=N)NC(C)(C)CC1=O)CC(C)(C)O2 [Example 128] | 280 | 
51 | CC[C@]1(C)CC(=O)N([C@H](CCOC)[C@H]2C[C@@H]2C(=O)NC2CC(C)(C)Oc3ccc(OC(F)(F)F)cc32)C(=N)N1 (stereo partly drawn) [Example 129A] | 1.3 | 
52 | CC[C@]1(C)CC(=O)N([C@H](CCOC)[C@H]2C[C@@H]2C(=O)NC2CC(C)(C)Oc3ccc(OC(F)(F)F)cc32)C(=N)N1 (stereo partly drawn) [Example 129B] |  | 2.5
53 | COCC[C@H]([C@H]1C[C@@H]1C(=O)NC1CC2(CCC2)Oc2ccccc21)N1C(=N)NC(C)(C)CC1=O (stereo partly drawn) [Example 131A] | 6.8 | 
54 | COCC[C@H]([C@H]1C[C@@H]1C(=O)NC1CC2(CCC2)Oc2ccccc21)N1C(=N)NC(C)(C)CC1=O (stereo partly drawn) [Example 131B] |  | 6.1
55 | COCC[C@H]([C@H]1C[C@@H]1C(=O)N[C@H]1CC(C)(C)Oc2ccc(C)cc21)N1C(=N)NC(C)(C)CC1=O [Example 132] | 6.7 | 
56 | CC1(C)CC(=O)N(C[C@H]2C[C@@H]2C(=O)N[C@H]2CC3(CCC3)Oc3ccccc32)C(=N)N1 [Example 135] | 190 | 
57 | Cc1cc2c(cc1Cl)[C@@H](NC(=O)[C@H]1C[C@@H]1CN1C(=N)NC(C)(C)CC1=O)CC(C)(C)O2 [Example 136] | 160 | 
